{"source": "patent US20030109537A1", "about": "“Methods and materials for treating bone conditions” (priority 2001, published 2003)", "key": {"[1]": {"test_system": "PTH-induced marrow fibrosis and osteoclast resorption", "assay": "Bone histomorphometry in rats given trapidil, continuous PTH or both", "assay_type": "in vivo, rat", "protocol": "Treatment protocol. Three month-old female Sprague-Dawley rats were divided into 4 groups. In group 1 (n=9), osmotic pumps that delivered vehicle alone at a rate of 1 μl/hr for 7 days were implanted in each rat. […] In groups 3 and 4 (n=8 and 10, respectively), osmotic pumps were implanted in each rat that delivered 40 μg/kg/day hPTH at a rate of 1 μl/hr for 7 days. […] Tetracycline (20 mg/kg, Sigma Chemical Co., St. Louis, Mo.) and calcein (20 mg/kg, Sigma) fluorochrome labels were injected at the base of the tail on day 0 (tetracycline) and day 6 (calcein). On day 8, all rats were anesthetized and blood was collected by cardiac puncture. The blood samples were used to determine serum chemistry and PTH levels. Following blood collection, the rats were sacrificed by cervical dislocation, and tibiae were surgically removed and fixed in 70% ethanol for bone histomorphometry.\nBone histomorphometry. Proximal metaphyses were dehydrated in a graded series of ethanol, then infiltrated and embedded in methymethacrylate (Fisher Scientific, Fair Lawn, N.J.). […] Dynamic histomorphometric cancellous bone measurements were made in the unstained sections using fluorescent microscopy to detect the injected tetracycline and calcein markers. After obtaining the cancellous bone measurements, consecutive sections were stained with toluidine blue for bone cell and peritrabecular fibrosis measurements using light microscopy. A standard sampling site of 2.8 mm was located in the secondary spongiosa of the metaphysis at 1.5 mm distal to the growth plate.\nAll histomorphometric measurements were made with an Osteomeasure image analysis system (OsteoMetrics, Atlanta, Ga.) coupled to a photomicroscope and personal computer. All parameters were calculated according to standardized nomenclature. See, for example, Parfitt et al., J. Bone Miner. […] Bone volume was defined as the percentage of tissue volume consisting of cancellous bone. Tetracycline and calcein labels were determined as the percentage of bone perimeter labeled with fluorochrome. Mineral apposition rate (MAR) was defined as the average width between tetracycline and calcein label divided by interlabel time of 6 days. Bone formation rate (BFR) was defined as the product of MAR and the calcein label perimeter, and was expressed per bone surface (BFR/BS), bone volume (BFR/BV), or tissue volume (BFR/TV). Osteoblast surface was defined as a palisade of large basophilic cuboidal cells directly lying on top of the osteoid, and was expressed as a percent of bone perimeter. Osteoclast surface was defined as the bone perimeter lined by multinucleated cells regardless of the presence of erosion. Fibrotic perimeter was defined as the bone perimeter lined by multilayers of fibroblasts.\nStatistical analysis. Multiple group comparisons were determined using one-way analysis of variance (one-way ANOVA) with statistical significance at P<0.05. Differences between pairs of groups were compared by the Fisher's protected least significant difference post-hoc test.\nSerum and bone samples were collected after 7 days and analyzed."}, "[2]": {"test_system": "PDGF-A positive mast cells", "assay": "Immunohistochemistry for PDGF-A on bone samples", "assay_type": "in vivo, rat"}, "[3]": {"conditions": "rat proximal tibial metaphysis cancellous bone, day 8, trapidil 40 mg/kg/day s.c., hPTH 40 μg/kg/day continuous, mean ± SEM"}}, "data": [{"substance": "human PTH (1-34)", "values": [{"measurement": "cancellous bone formation (per bone surface, bone volume, or tissue volume)", "setting": "[1]; continuous PTH, rats", "result": "stimulated"}, {"measurement": "osteoclast-lined surface (Oc.S/BS)", "setting": "[1]; continuous PTH, rats, FIG. 2B", "result": "increased"}, {"measurement": "peritrabecular fibrosis", "setting": "[1]; continuous PTH, rats, FIG. 3", "result": "induced extensive peritrabecular fibrosis"}, {"measurement": "osteoblast surface (Ob.S/BS)", "setting": "[1]; continuous PTH, trapidil given with continuous PTH, FIG. 2A", "result": "increased"}, {"measurement": "effect on cortical bone histomorphometry", "setting": "[1]; fluorochrome-based analysis of tibial metaphyseal sections, rats", "result": "neither trapidil nor PTH treatment had any effect"}, {"measurement": "BFR/BS (bone formation rate per bone surface)", "setting": "[1]; [3]", "result": "0.71 ± 0.10^ab μm^3/μm^2/day"}, {"measurement": "BFR/BV (bone formation rate per bone volume)", "setting": "[1]; [3]", "result": "2.30 ± 0.31^ab %"}, {"measurement": "BFR/TV (bone formation rate per tissue volume)", "setting": "[1]; [3]", "result": "0.63 ± 0.09^ab %"}, {"measurement": "BV/TV (bone volume per tissue volume)", "setting": "[1]; [3]", "result": "27.25 ± 1.14", "unit": "%"}, {"measurement": "Calcein label", "setting": "[1]; [3]", "result": "48.08 ± 5.35^ab %"}, {"measurement": "MAR (mineral apposition rate)", "setting": "[1]; [3]", "result": "1.29 ± 0.08", "unit": "μm/day"}, {"measurement": "Tetracycline label", "setting": "[1]; [3]", "result": "5.65 ± 2.48", "unit": "%"}, {"measurement": "mast cell staining for PDGF-A peptide", "setting": "[2]; PTH-treated rats", "result": "stained intensely"}, {"measurement": "number of PDGF-A positive mast cells", "setting": "[2]; PTH-treated vs vehicle, PTH+trapidil treated", "result": "increased"}]}]}
